Reference: ChEMBL document CHEMBL4308841, “Synthesis, in vitro antiproliferative activity, and kinase inhibitory effects of pyrazole-containing diarylureas and diarylamides” (Eur J Med Chem, 2018)

What was measured:
[1] = tested on: NCI-H23; test: Growth inhibition of human NCI-H23 cells incubated for 48 hrs by sulforhodamine B assay; assay type: functional, cell-based; details: NCI-H23, 48 h
[2] = tested on: HL-60(TB); test: Growth inhibition of human HL-60(TB) cells assessed as cell growth at 1 uM incubated for 48 hrs by sulforhodamine B assay relative to control; assay type: functional; details: HL-60, 48 h, read-out: Activity
[3] = tested on: SK-MEL-2; test: Growth inhibition of human SK-MEL-2 cells assessed as cell growth at 0.01 uM incubated for 48 hrs by sulforhodamine B assay relative to control; assay type: functional; details: SK-MEL-2, 48 h, read-out: Activity
[4] = tested on: SF-295; test: Growth inhibition of human SF295 cells assessed as cell growth at 1 uM incubated for 48 hrs by sulforhodamine B assay relative to control; assay type: functional; details: SF-295, 48 h, read-out: Activity
[5] = tested on: Hs-578T; test: Growth inhibition of human Hs578T cells incubated for 48 hrs by sulforhodamine B assay; assay type: functional, cell-based
[6] = tested on: Hs-578T; test: Growth inhibition of human Hs578T cells assessed as cell growth at 1 uM incubated for 48 hrs by sulforhodamine B assay relative to control; assay type: functional; details: read-out: Activity
[7] = tested on: HT-29; test: Growth inhibition of human HT-29 cells assessed as cell growth at 0.01 uM incubated for 48 hrs by sulforhodamine B assay relative to control; assay type: functional; details: HT-29, 48 h, read-out: Activity
[8] = tested on: RXF 393; test: Growth inhibition of human RXF393 cells assessed as cell growth at 0.01 uM incubated for 48 hrs by sulforhodamine B assay relative to control; assay type: functional; details: RXF 393, 48 h, read-out: Activity
[9] = tested on: UACC-257; test: Growth inhibition of human UACC257 cells assessed as cell growth at 0.01 uM incubated for 48 hrs by sulforhodamine B assay relative to control; assay type: functional; details: UACC-257, 48 h, read-out: Activity
[10] = tested on: MCF7; test: Growth inhibition of human MCF7 cells incubated for 48 hrs by sulforhodamine B assay; assay type: functional, cell-based; details: MCF7, 48 h
[11] = tested on: OVCAR-3; test: Growth inhibition of human OVCAR3 cells assessed as cell growth at 0.1 uM incubated for 48 hrs by sulforhodamine B assay relative to control; assay type: functional; details: OVCAR-3, 48 h, read-out: Activity
[12] = tested on: NCI-H322M; test: Growth inhibition of human NCI-H322M cells assessed as cell growth at 1 uM incubated for 48 hrs by sulforhodamine B assay relative to control; assay type: functional; details: read-out: Activity
[13] = tested on: SN12C; test: Growth inhibition of human SN12C cells assessed as cell growth at 1 uM incubated for 48 hrs by sulforhodamine B assay relative to control; assay type: functional; details: read-out: Activity
[14] = tested on: MCF7; test: Growth inhibition of human MCF7 cells assessed as cell growth at 0.01 uM incubated for 48 hrs by sulforhodamine B assay relative to control; assay type: functional; details: MCF7, 48 h, read-out: Activity
[15] = tested on: NCI-H226; test: Growth inhibition of human NCI-H226 cells assessed as cell growth at 100 uM incubated for 48 hrs by sulforhodamine B assay relative to control; assay type: functional; details: NCI-H226, 48 h, read-out: Activity
[16] = tested on: HL-60(TB); test: Growth inhibition of human HL-60(TB) cells incubated for 48 hrs by sulforhodamine B assay; assay type: functional, cell-based; details: HL-60, 48 h
[17] = tested on: SN12C; test: Growth inhibition of human SN12C cells assessed as cell growth at 0.1 uM incubated for 48 hrs by sulforhodamine B assay relative to control; assay type: functional; details: read-out: Activity
[18] = tested on: SNB-75; test: Growth inhibition of human SNB75 cells assessed as cell growth at 100 uM incubated for 48 hrs by sulforhodamine B assay relative to control; assay type: functional; details: SNB-75, 48 h, read-out: Activity
[19] = tested on: SK-OV-3; test: Growth inhibition of human SKOV3 cells assessed as cell growth at 0.01 uM incubated for 48 hrs by sulforhodamine B assay relative to control; assay type: functional; details: SK-OV-3, 48 h, read-out: Activity
[20] = tested on: SF-539; test: Growth inhibition of human SF539 cells assessed as cell growth at 100 uM incubated for 48 hrs by sulforhodamine B assay relative to control; assay type: functional; details: SF-539, 48 h, read-out: Activity
[21] = tested on: HCT-116; test: Growth inhibition of human HCT116 cells assessed as cell growth at 1 uM incubated for 48 hrs by sulforhodamine B assay relative to control; assay type: functional; details: HCT-116, 48 h, read-out: Activity
[22] = tested on: HCT-15; test: Growth inhibition of human HCT15 cells assessed as cell growth at 100 uM incubated for 48 hrs by sulforhodamine B assay relative to control; assay type: functional; details: HCT-15, 48 h, read-out: Activity
[23] = tested on: SR; test: Growth inhibition of human SR cells assessed as cell growth at 0.1 uM incubated for 48 hrs by sulforhodamine B assay relative to control; assay type: functional; details: read-out: Activity
[24] = tested on: CAKI-1; test: Growth inhibition of human Caki1 cells assessed as cell growth at 1 uM incubated for 48 hrs by sulforhodamine B assay relative to control; assay type: functional; details: CAKI-1, 48 h, read-out: Activity
[25] = tested on: SNB-75; test: Growth inhibition of human SNB75 cells incubated for 48 hrs by sulforhodamine B assay; assay type: functional, cell-based; details: SNB-75, 48 h
[26] = tested on: SF-539; test: Growth inhibition of human SF539 cells incubated for 48 hrs by sulforhodamine B assay; assay type: functional, cell-based; details: SF-539, 48 h
[27] = tested on: IGROV-1; test: Growth inhibition of human IGROV1 cells assessed as cell growth at 0.01 uM incubated for 48 hrs by sulforhodamine B assay relative to control; assay type: functional; details: IGROV-1, 48 h, read-out: Activity
[28] = tested on: SNB-19; test: Growth inhibition of human SNB19 cells assessed as cell growth at 0.01 uM incubated for 48 hrs by sulforhodamine B assay relative to control; assay type: functional; details: SNB-19, 48 h, read-out: Activity
[29] = tested on: NCI-H322M; test: Growth inhibition of human NCI-H322M cells assessed as cell growth at 0.1 uM incubated for 48 hrs by sulforhodamine B assay relative to control; assay type: functional; details: read-out: Activity
[30] = tested on: OVCAR-4; test: Growth inhibition of human OVCAR4 cells assessed as cell growth at 100 uM incubated for 48 hrs by sulforhodamine B assay relative to control; assay type: functional; details: OVCAR-4, 48 h, read-out: Activity
[31] = read-out: LC50 (the source's name)
[32] = read-out: pLC50 (the source's name) (converted)

COc1cc(Cl)cc(-c2nn(-c3cccc(NC(=O)Nc4cccc(C(F)(F)F)c4)c3)cc2-c2ccncc2)c1 was tested, and the GI50 ([1]; read-out: GI50) was 1.76 µM, the LC50 ([1]; read-out: LC50) was > 100 µM and the TGI ([1]; read-out: TGI) was 55.9 µM. The GI50 ([1]; read-out: pGI50 (converted)) was 1.78 µM, the LC50 ([1]; read-out: pLC50 (converted)) was > 100 µM and the TGI ([1]; read-out: pTGI (converted)) was 6.76 µM. It also gave a growth at 1 µM [2] of 81%, a growth at 0.01 µM [3] of 95% and a growth at 1 µM [4] of 45%. For the same molecule, the GI50 ([5]; read-out: GI50) was 4.05 µM, the CC50 [5, 31] was > 100 µM and the TGI ([5]; read-out: TGI) was > 100 µM. For the same molecule, the GI50 ([5]; read-out: pGI50 (converted)) was 4.07 µM, the CC50 [5, 32] was > 100 µM and the TGI ([5]; read-out: pTGI (converted)) was > 100 µM. For the same molecule, the growth at 1 µM [6] was 90%, the growth at 0.01 µM [7] was 102% and the growth at 0.01 µM [8] was 93%. For the same molecule, the growth at 0.01 µM [9] was 90%, the GI50 ([10]; read-out: GI50) was 1.48 µM and the LC50 ([10]; read-out: LC50) was > 100 µM. For the same molecule, the TGI ([10]; read-out: TGI) was 75.7 µM, the GI50 ([10]; read-out: pGI50 (converted)) was 1.48 µM and the LC50 ([10]; read-out: pLC50 (converted)) was > 100 µM. For the same molecule, the TGI ([10]; read-out: pTGI (converted)) was 7.59 µM, the growth at 0.1 µM [11] was 98% and the growth at 1 µM [12] was 83%. The growth at 1 µM [13] was 59%, the growth at 0.01 µM [14] was 91% and the growth at 100 µM [15] was -22%. For the same molecule, the GI50 ([16]; read-out: GI50) was 1.91 µM, the LC50 ([16]; read-out: LC50) was > 100 µM and the TGI ([16]; read-out: TGI) was 55.1 µM. The GI50 ([16]; read-out: pGI50 (converted)) was 1.91 µM, the LC50 ([16]; read-out: pLC50 (converted)) was > 100 µM and the TGI ([16]; read-out: pTGI (converted)) was 5.5 µM. For the same molecule, the growth at 0.1 µM [17] was 96%, the growth at 100 µM [18] was -17% and the growth at 0.01 µM [19] was 92%. It also gave a growth at 100 µM [20] of -72%, a growth at 1 µM [21] of 43% and a growth at 100 µM [22] of -72%. For the same molecule, the growth at 0.1 µM [23] was 93%, the growth at 1 µM [24] was 57% and the GI50 ([25]; read-out: GI50) was 1.76 µM. The CC50 [25, 31] was > 100 µM, the TGI ([25]; read-out: TGI) was 13.9 µM and the GI50 ([25]; read-out: pGI50 (converted)) was 1.78 µM. For the same molecule, the CC50 [25, 32] was > 100 µM, the TGI ([25]; read-out: pTGI (converted)) was 13.8 µM and the GI50 ([26]; read-out: GI50) was 1 µM. For the same molecule, the CC50 [26, 31] was 21.1 µM, the TGI ([26]; read-out: TGI) was 45.2 µM and the GI50 ([26]; read-out: pGI50 (converted)) was 1.91 µM. For the same molecule, the CC50 [26, 32] was 21.4 µM, the TGI ([26]; read-out: pTGI (converted)) was 4.79 µM and the growth at 0.01 µM [27] was 106%. The growth at 0.01 µM [28] was 98%, the growth at 0.1 µM [29] was 94% and the growth at 100 µM [30] was -13%.
